Laboratory results as given in PMC11963566, “A phase I, single-center, randomized, open-label, three-period crossover study to evaluate the drug–drug interaction between ZSP1273 and oseltamivir in healthy Chinese subjects” (Antimicrobial Agents and Chemotherapy, 2025).
Read-outs that look alike come from different tables or passages of the source.

Tests used:
[1] = Safety assessment: adverse events (CTCAE 5.0, MedDRA 23.1) in healthy subjects; format: in vivo, human
Protocol: Safety assessment was conducted from the first administration of the investigational drug until the end of the trial. Safety indicators included adverse events (AEs), serious adverse events (SAEs), clinical laboratory tests (hematology, biochemistry, and urinalysis), vital signs, physical examination, and 12-lead electrocardiogram.
The severity of AE was assessed according to the CTCAE 5.0 standard and includes grades 1 to 5. Based on the criteria for determining causality between drugs and adverse events, the relationship was classified into five levels: definitely related, probably related, possibly related, probably not related, definitely not related. Among them, definitely related, probably related, and possibly related are defined as drug-related AEs.
Adverse events were coded using Med DRA 23.1 Chinese ([30]) and analyzed based on system organ class (SOC) and preferred term (PT). Adverse events during the treatment period, drug-related adverse events, and serious adverse events were described by frequency, number of cases (n), and incidence rate (%) according to SOC, PT, and the highest severity classification.

clinical = settings: human; for AUC(0-inf): AUC0-∞,ss
[2] = subjects with AUC_%Extrap >20.0% or Rsq <0.800 excluded
[3] = SOC Gastrointestinal disorders, probably related
[4] = SOC General disorders and administration site conditions, possibly related
[5] = SOC Infections and infestations, probably not related
[6] = SOC Investigations, possibly related
[7] = SOC Investigations, probably not related
[8] = SOC Skin and subcutaneous tissue disorders, possibly related
[9] = healthy subjects, 5 days dosing

CCOC(=O)C1=C[C@@H](OC(CC)CC)[C@H](NC(C)=O)[C@@H](N)C1 [Oseltamivir, oseltamivir]
AUC0-t,ss, geometric mean ratio co-administration/monotherapy (human, in vivo): 92.7%
AUC0-τ,ss, geometric mean ratio co-administration/monotherapy (human, in vivo): 92.2%
AUC0-∞,ss, geometric mean ratio co-administration/monotherapy (human, in vivo): 92.6%
AUC0-∞,ss, intra-individual coefficient of variation (human, in vivo): 11.8%
Cmax,ss, geometric mean ratio co-administration/monotherapy (human, in vivo): 60.1%
decrease in Cmax,ss after co-administration (human, in vivo): 39.9%
CLss/F (human, in vivo, po): 459.8 ± 106.3 (23.1%) L/h
AUC0-∞,ss, geometric mean ratio co-administration/monotherapy [2]: 93.5%
AUC0-∞,ss, intra-individual coefficient of variation [2]: 10.7%
Gastrointestinal disorders (SOC): Cases (%) ([1]; AE by system organ class): 0 Cases (%)
Gastrointestinal disorders (SOC): Occurrences ([1]; AE by system organ class): 0
General disorders and administration site conditions (SOC): Cases (%) ([1]; AE by system organ class): 0 Cases (%)
General disorders and administration site conditions (SOC): Occurrences ([1]; AE by system organ class): 0
Infections and infestations (SOC): Cases (%) ([1]; AE by system organ class): 1 (2.9) Cases (%)
Infections and infestations (SOC): Occurrences ([1]; AE by system organ class): 1
Investigations (SOC): Cases (%) ([1]; AE by system organ class): 6 (17.6) Cases (%)
Investigations (SOC): Occurrences ([1]; AE by system organ class): 12
Skin and subcutaneous tissue disorders (SOC): Cases (%) ([1]; AE by system organ class): 1 (2.9) Cases (%)
Skin and subcutaneous tissue disorders (SOC): Occurrences ([1]; AE by system organ class): 1
Diarrhea: Cases (%) [1, 3]: 0 Cases (%)
Diarrhea: Occurrences [1, 3]: 0
Fever: Cases (%) [1, 4]: 0 Cases (%)
Fever: Occurrences [1, 4]: 0
Upper respiratory tract infection (URTI): Cases (%) [1, 5]: 1 (2.9) Cases (%)
Upper respiratory tract infection (URTI): Occurrences [1, 5]: 1
Decreased blood triglycerides: Cases (%) [1, 6]: 1 (2.9) Cases (%)
Decreased blood triglycerides: Occurrences [1, 6]: 1
Decreased high-density lipoprotein (HDL): Cases (%) [1, 6]: 2 (5.9) Cases (%)
Decreased high-density lipoprotein (HDL): Occurrences [1, 6]: 2
Decreased neutrophil count: Cases (%) [1, 6]: 0 Cases (%)
Decreased neutrophil count: Occurrences [1, 6]: 0
Increased blood cholesterol: Cases (%) [1, 6]: 0 Cases (%)
Increased blood cholesterol: Occurrences [1, 6]: 0
Increased blood creatinine: Cases (%) [1, 6]: 0 Cases (%)
Increased blood creatinine: Occurrences [1, 6]: 0
Increased blood triglycerides: Cases (%) [1, 6]: 1 (2.9) Cases (%)
Increased blood triglycerides: Occurrences [1, 6]: 1
Increased blood uric acid: Cases (%) [1, 6]: 1 (2.9) Cases (%)
Increased blood uric acid: Occurrences [1, 6]: 1
Increased gamma-glutamyl transferase (GGT): Cases (%) [1, 6]: 0 Cases (%)
Increased gamma-glutamyl transferase (GGT): Occurrences [1, 6]: 0
Increased lipase: Cases (%) [1, 6]: 0 Cases (%)
Increased lipase: Occurrences [1, 6]: 0
Increased low-density lipoprotein (LDL): Cases (%) [1, 6]: 0 Cases (%)
Increased low-density lipoprotein (LDL): Occurrences [1, 6]: 0
Crystals present in urine: Cases (%) [1, 7]: 1 (2.9) Cases (%)
Crystals present in urine: Occurrences [1, 7]: 1
Decreased hemoglobin: Cases (%) [1, 7]: 2 (5.9) Cases (%)
Decreased hemoglobin: Occurrences [1, 7]: 2
Increased urine specific gravity: Cases (%) [1, 7]: 1 (2.9) Cases (%)
Increased urine specific gravity: Occurrences [1, 7]: 1
Nitrites present in urine: Cases (%) [1, 7]: 1 (2.9) Cases (%)
Nitrites present in urine: Occurrences [1, 7]: 1
Positive urine occult blood: Cases (%) [1, 7]: 1 (2.9) Cases (%)
Positive urine occult blood: Occurrences [1, 7]: 1
Protein detected in urine: Cases (%) [1, 7]: 1 (2.9) Cases (%)
Protein detected in urine: Occurrences [1, 7]: 1
Acneiform dermatitis: Cases (%) [1, 8]: 1 (2.9) Cases (%)
Acneiform dermatitis: Occurrences [1, 8]: 1
Maculopapular rash: Cases (%) [1, 8]: 0 Cases (%)
Maculopapular rash: Occurrences [1, 8]: 0
increased blood triglycerides, incidence ([1]; drug-related adverse event): 2.9%
At least one treatment-emergent adverse event (TEAE): Cases (%) [1, 9]: 7 (20.6) Cases (%)
At least one treatment-emergent adverse event (TEAE): Occurrences [1, 9]: 14
At least one treatment-emergent adverse event related to drugs: Cases (%) [1, 9]: 5 (14.7) Cases (%)
At least one treatment-emergent adverse event related to drugs: Occurrences [1, 9]: 6
AUC(0-t) (clinical; in vivo, AUC0-t,ss, geometric mean): 170 ng·h/mL
AUC (clinical; in vivo, AUC0-τ,ss, geometric mean): 167 ng·h/mL
AUC(0-inf) (clinical; in vivo, geometric mean): 175 ng·h/mL
AUC(0-inf) (clinical; in vivo, geometric mean, monotherapy, subjects with AUC_%Extrap >20.0% or Rsq <0.800 excluded): 175 ng·h/mL
Cmax (clinical; in vivo, Cmax,ss, geometric mean): 91.2 ng/mL
Tmax (clinical; in vivo, po, Tmax,ss): 0.5 h
Vd/F (clinical; in vivo, po, Vz/F): 3070 L
half-life (clinical; in vivo, po, t1/2,ss): 4.5 ± 4.8 h
AUC(0-inf) (clinical; plasma, oral, geometric mean, co-administration ZSP1273 + oseltamivir, plasma, day 5, all subjects): 163 ng·h/mL
k el (clinical; plasma, po, 75 mg): 7.78e-05 s⁻¹
